Experimental data as given in ChEMBL document CHEMBL1136200, “Potent and selective inhibitors of platelet-derived growth factor receptor phosphorylation. Part 4: structure-activity relationships for substituents on the quinazoline moiety of 4-[4-(N-substituted(thio)carbamoyl)-1-piperazinyl]-6,7-dimethoxyquinazoline derivatives” (Bioorg Med Chem Lett, 2003).

biological target: Platelet-derived growth factor receptor beta (Homo sapiens, UniProt P09619); experiment: Inhibitory concentration against platelet-derived growth factor receptor beta phosphorylation in CHO cells; format: functional, cell-based, Cricetulus griseus
Sequence (P09619 whole entry): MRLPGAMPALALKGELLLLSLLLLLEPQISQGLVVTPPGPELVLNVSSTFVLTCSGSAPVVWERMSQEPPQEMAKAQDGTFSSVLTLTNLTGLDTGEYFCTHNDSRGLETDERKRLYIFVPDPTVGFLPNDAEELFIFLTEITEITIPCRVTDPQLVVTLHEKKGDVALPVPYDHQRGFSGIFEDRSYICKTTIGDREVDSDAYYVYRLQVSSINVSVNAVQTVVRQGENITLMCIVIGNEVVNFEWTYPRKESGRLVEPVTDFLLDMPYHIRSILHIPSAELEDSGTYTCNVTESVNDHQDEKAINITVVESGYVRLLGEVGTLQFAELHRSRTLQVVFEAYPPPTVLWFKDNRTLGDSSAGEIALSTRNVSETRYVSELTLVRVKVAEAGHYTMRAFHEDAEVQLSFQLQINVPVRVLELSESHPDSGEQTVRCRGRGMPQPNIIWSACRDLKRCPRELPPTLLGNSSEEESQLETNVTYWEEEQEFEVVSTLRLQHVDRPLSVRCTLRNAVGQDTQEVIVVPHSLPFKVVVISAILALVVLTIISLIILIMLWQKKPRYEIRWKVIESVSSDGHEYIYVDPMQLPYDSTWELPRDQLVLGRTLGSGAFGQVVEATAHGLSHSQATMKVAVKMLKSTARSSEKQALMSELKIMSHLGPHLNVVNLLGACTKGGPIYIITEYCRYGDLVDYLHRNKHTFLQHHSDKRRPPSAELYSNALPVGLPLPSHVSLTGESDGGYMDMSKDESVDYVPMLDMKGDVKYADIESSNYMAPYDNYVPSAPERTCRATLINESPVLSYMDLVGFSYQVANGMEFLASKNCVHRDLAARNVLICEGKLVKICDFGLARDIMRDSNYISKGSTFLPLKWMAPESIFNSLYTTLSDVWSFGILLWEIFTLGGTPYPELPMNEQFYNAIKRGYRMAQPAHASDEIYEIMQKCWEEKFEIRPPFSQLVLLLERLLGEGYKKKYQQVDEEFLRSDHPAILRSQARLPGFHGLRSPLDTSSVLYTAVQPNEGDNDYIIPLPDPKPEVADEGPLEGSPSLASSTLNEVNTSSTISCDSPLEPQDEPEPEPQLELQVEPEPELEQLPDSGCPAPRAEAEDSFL

| Compound | IC50 |
| --- | --- |
| CC(=O)Nc1cc2c(N3CCN(/C(S)=N\Cc4ccccc4)CC3)ncnc2cc1Cl | > 1000 nM |
| Nc1cc2ncnc(N3CCN(C(=O)Nc4ccc(Oc5ccccc5)cc4)CC3)c2cc1[N+](=O)[O-] | 1160 nM |
| COc1cccc2c(N3CCN(C(=O)Nc4ccc(Oc5ccccc5)cc4)CC3)ncnc12 | 10700 nM |
| O=C(O)c1ccc2c(N3CCN(C(=O)Nc4ccc(Oc5ccccc5)cc4)CC3)ncnc2c1 | > 30000 nM |
| O=C(Nc1ccc(Oc2ccccc2)cc1)N1CCN(c2ncnc3cc(Cl)c([N+](=O)[O-])cc23)CC1 | 1320 nM |
| Cc1ccc2c(N3CCN(C(=O)Nc4ccc(Oc5ccccc5)cc4)CC3)ncnc2c1 | > 100 nM |
| O=C(Nc1ccc(Oc2ccccc2)cc1)N1CCN(c2ncnc3ccc([N+](=O)[O-])cc23)CC1 | 29700 nM |
| CC(C)Oc1ccc2c(N3CCN(C(=O)Nc4ccc(Oc5ccccc5)cc4)CC3)ncnc2c1 | 1120 nM |
| S=C(NCc1ccccc1)N1CCN(c2ncnc3cc(Cl)ccc23)CC1 | 5160 nM |
| COC(=O)c1ccc2c(N3CCN(C(=O)Nc4ccc(Oc5ccccc5)cc4)CC3)ncnc2c1 | > 750 nM |
| O=C(Nc1ccc(Oc2ccccc2)cc1)N1CCN(c2ncnc3ccc(Br)cc23)CC1 | 1380 nM |
| O=C(Nc1ccc(Oc2ccccc2)cc1)N1CCN(c2ncnc3cc(F)c(F)cc23)CC1 | 970 nM |
| Cc1ccc2ncnc(N3CCN(C(=O)Nc4ccc(Oc5ccccc5)cc4)CC3)c2c1 | 540 nM |
| O=C(Nc1ccc(Oc2ccccc2)cc1)N1CCN(c2ncnc3ccc(I)cc23)CC1 | 5170 nM |
| Nc1cc2c(N3CCN(C(=S)NCc4ccccc4)CC3)ncnc2cc1Cl | 160 nM |
| O=[N+]([O-])c1cc2c(N3CCN(C(=S)NCc4ccccc4)CC3)ncnc2cc1Cl | > 30000 nM |
| Cc1cccc2ncnc(N3CCN(C(=O)Nc4ccc(Oc5ccccc5)cc4)CC3)c12 | 6250 nM |
| O=C(Nc1ccc(Oc2ccccc2)cc1)N1CCN(c2ncnc3ccc(F)cc23)CC1 | 350 nM |
| O=C(Nc1ccc(Oc2ccccc2)cc1)N1CCN(c2ncnc3cc([N+](=O)[O-])ccc23)CC1 | 2880 nM |
